Values after ≈ are worked out from the molar mass of the structure shown. One block for each molecule: values may come before it.
Columns and labels:
[1] = Inhibition of HIV-1 wild-type integrase using U5A/U5B-2 labeled double-stranded DNA as substrate by beta radiation counter analysis; parameters: species or system Human immunodeficiency virus 1
[2] = Inhibition of urease (unknown origin)
[3] = target: DNA polymerase beta (Homo sapiens, UniProt P06746); assay: Inhibition of DNA polymerase beta (unknown origin)
[4] = target: Protein kinase C (PKC); assay: Inhibition of PKC (unknown origin) using acetylated myelin basic protein (4 to 14 residues) as substrate incubated for [gamma-32P]-ATP incubated for 5 mins by scintillation counter analysis; assay type: protein assay, Homo sapiens
[5] = target: cAMP-dependent protein kinase (PKA) (Homo sapiens, UniProt P22694+P17612+P22612); assay: Inhibition of PKA (unknown origin) using Kemptide as substrate incubated for [gamma-32P]-ATP incubated for 5 mins by scintillation counter analysis; assay type: protein assay
[6] = target: T1, Hepatocyte growth factor receptor (Homo sapiens, UniProt P08581); assay: Inhibition of c-Met (unknown origin)
T1 sequence (P08581 whole entry): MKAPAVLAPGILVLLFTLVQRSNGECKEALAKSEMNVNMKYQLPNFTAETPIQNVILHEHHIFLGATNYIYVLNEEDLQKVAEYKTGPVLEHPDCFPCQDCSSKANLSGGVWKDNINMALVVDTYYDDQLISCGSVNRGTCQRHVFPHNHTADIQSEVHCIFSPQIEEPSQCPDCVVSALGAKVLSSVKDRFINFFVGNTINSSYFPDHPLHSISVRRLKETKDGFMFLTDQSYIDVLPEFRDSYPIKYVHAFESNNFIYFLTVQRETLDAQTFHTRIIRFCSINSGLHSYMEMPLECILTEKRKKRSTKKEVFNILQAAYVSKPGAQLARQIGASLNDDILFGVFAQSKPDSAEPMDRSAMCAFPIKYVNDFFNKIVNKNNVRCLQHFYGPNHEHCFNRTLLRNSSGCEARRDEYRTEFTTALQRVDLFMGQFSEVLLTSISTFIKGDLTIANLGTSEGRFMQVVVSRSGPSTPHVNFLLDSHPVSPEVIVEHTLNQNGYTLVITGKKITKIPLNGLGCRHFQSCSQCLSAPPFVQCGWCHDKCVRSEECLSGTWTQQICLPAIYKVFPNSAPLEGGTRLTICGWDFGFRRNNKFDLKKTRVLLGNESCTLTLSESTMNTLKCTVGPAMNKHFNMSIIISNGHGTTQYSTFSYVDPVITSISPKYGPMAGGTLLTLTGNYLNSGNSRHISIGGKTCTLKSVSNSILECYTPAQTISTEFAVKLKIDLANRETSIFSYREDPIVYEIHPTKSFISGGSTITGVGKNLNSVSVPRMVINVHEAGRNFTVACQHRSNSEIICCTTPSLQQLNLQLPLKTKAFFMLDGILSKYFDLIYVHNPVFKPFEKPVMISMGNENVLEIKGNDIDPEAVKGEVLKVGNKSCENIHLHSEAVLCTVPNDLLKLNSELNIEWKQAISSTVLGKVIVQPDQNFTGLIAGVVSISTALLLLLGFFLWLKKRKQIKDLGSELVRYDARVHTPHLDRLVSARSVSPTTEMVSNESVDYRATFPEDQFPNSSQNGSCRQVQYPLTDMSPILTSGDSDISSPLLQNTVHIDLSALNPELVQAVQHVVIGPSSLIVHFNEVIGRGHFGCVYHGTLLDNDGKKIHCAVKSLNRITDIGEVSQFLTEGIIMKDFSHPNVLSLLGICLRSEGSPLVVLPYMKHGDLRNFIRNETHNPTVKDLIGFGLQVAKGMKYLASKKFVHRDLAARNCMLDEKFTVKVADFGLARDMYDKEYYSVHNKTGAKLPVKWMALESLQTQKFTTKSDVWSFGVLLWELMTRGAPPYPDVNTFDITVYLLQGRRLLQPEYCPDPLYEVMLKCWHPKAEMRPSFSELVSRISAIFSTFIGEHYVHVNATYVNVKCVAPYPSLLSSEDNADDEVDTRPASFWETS

[7] = target: T2, Alpha-glucosidase (Saccharomyces cerevisiae S288c, UniProt P53341+P38158+P07265); assay: Inhibition of Baker's yeast alpha-glucosidase using pNPG as substrate assessed as release of p-nitrophenol preincubated for 10 mins followed by substrate addition and measured after 30 mins by microplate reader analysis; assay type: protein assay
[8] = Inhibition of HIV-1 integrase; parameters: species or system Human immunodeficiency virus 1
[9] = Inhibition of porcine pancreas alpha-amylase using CNP-G3 as substrate preincubated for 10 mins followed by substrate addition and measured after 30 mins by microplate reader analysis; parameters: species or system Sus scrofa
[10] = target: T2, Alpha-glucosidase; assay: Inhibition of Saccharomyces cerevisiae alpha-glucosidase using pNPG as substrate incubated for 30 mins by microplate reader analysis; assay type: protein assay
[11] = target: T1, Hepatocyte growth factor receptor; assay: Inhibition of c-Met (unknown origin) using poly (Glu,Tyr) at 4:1 ratio as substrate incubated for 60 mins by ELISA

Structure (SMILES): O=c1oc2ccccc2c(O)c1C(c1cccnc1)c1c(O)c2ccccc2oc1=O
IC50 [2]: 35 µM

Structure (SMILES): O=C(Oc1ccc(C(c2c(O)c3ccccc3oc2=O)c2c(O)c3ccccc3oc2=O)cc1)c1ccc(O)cc1
IC50 [1]: 3.2 µM

Structure (SMILES): O=c1oc2ccccc2c(O)c1C(c1ccc(NC(=S)Nc2ccc([N+](=O)[O-])cc2)cc1)c1c(O)c2ccccc2oc1=O
IC50 [3]: 24.7 µM

Structure (SMILES): O=C(Oc1ccc(C(c2c(O)c3ccccc3oc2=O)c2c(O)c3ccccc3oc2=O)cc1)c1cccc(O)c1
IC50 [1]: 6.1 µM

Structure (SMILES): O=C(Oc1c(C(c2ccc(O)cc2)c2c(O)c3ccccc3oc2=O)c(=O)oc2ccccc12)c1ccc(O)c(O)c1 (configuration not stated)
IC50 [1]: 37 µM

Structure (SMILES): COc1ccccc1NC(=S)Nc1ccc(C(c2c(O)c3ccccc3oc2=O)c2c(O)c3ccccc3oc2=O)cc1
IC50 [7]: 104.62 µM

Structure (SMILES): O=C(Oc1ccc(C(c2c(O)c3ccccc3oc2=O)c2c(O)c3ccccc3oc2=O)cc1)c1ccccc1O
IC50 [1]: 10 µM

Structure (SMILES): O=C(Oc1ccc(C(c2c(O)c3ccccc3oc2=O)c2c(O)c3ccccc3oc2=O)cc1)c1ccc(O)c(O)c1
IC50 [1]: 1.5 µM

Structure (SMILES): O=c1oc2ccccc2c(O)c1C(c1ccc[nH]1)c1c(O)c2ccccc2oc1=O
IC50 [2]: 46.1 µM

Structure (SMILES): COc1ccc(NC(=S)Nc2ccc(C(c3c(O)c4ccccc4oc3=O)c3c(O)c4ccccc4oc3=O)cc2)cc1
IC50 [7]: 13.5 µM

Structure (SMILES): COc1cccc(NC(=S)Nc2ccc(C(c3c(O)c4ccccc4oc3=O)c3c(O)c4ccccc4oc3=O)cc2)c1
IC50 [7]: 25.31 µM

Structure (SMILES): CC(=O)Oc1ccccc1C(=O)Oc1ccc(C(c2c(O)c3ccccc3oc2=O)c2c(O)c3ccccc3oc2=O)cc1
IC50 [1]: 27 µM

Structure (SMILES): C/C=C/C(c1c(O)c2ccccc2oc1=O)c1c(O)c2ccccc2oc1=O
IC50 [2]: 42.9 µM

Structure (SMILES): O=C(Oc1ccc(C(c2c(O)c3ccccc3oc2=O)c2c(O)c3ccccc3oc2=O)cc1)c1cc(O)ccc1O
IC50 [1]: 25 µM

Structure (SMILES): O=C(Oc1ccc(C(c2c(O)c3ccccc3oc2=O)c2c(O)c3ccccc3oc2=O)cc1)c1ccc(O)cc1O
IC50 [1]: 4.9 µM

Structure (SMILES): O=c1oc2ccccc2c(O)c1C(c1c(O)c2ccccc2oc1=O)c1c[nH]c2ccccc12
IC50 [2]: 48.4 µM

Structure (SMILES): CC(=O)Oc1cccc(C(=O)Oc2ccc(C(c3c(O)c4ccccc4oc3=O)c3c(O)c4ccccc4oc3=O)cc2)c1
IC50 [1]: 7.1 µM

Structure (SMILES): O=C(Oc1ccc(C(c2c(O)c3ccccc3oc2=O)c2c(O)c3ccccc3oc2=O)cc1)c1cc(O)cc(O)c1
IC50 [1]: 53 µM

Structure (SMILES): O=C(/C=C/c1ccc(O)c(O)c1)Oc1ccc(C(c2c(O)c3ccccc3oc2=O)c2c(O)c3ccccc3oc2=O)cc1
IC50 [1]: 2.6 µM

Structure (SMILES): O=C(CCCCC1CCSS1)Oc1ccc(C(c2c(O)c3ccccc3oc2=O)c2c(O)c3ccccc3oc2=O)cc1 (configuration not stated)
IC50 [1]: 2.3 µM

Structure (SMILES): CC(=O)Oc1ccc(C(=O)Oc2ccc(C(c3c(O)c4ccccc4oc3=O)c3c(O)c4ccccc4oc3=O)cc2)cc1
IC50 [1]: 4.6 µM

Other lines, results leading:

IC50 [1]: 19 µM
Structure (SMILES): CC(=O)Oc1ccc(C(=O)Oc2ccc(C(c3c(O)c4ccccc4oc3=O)c3c(O)c4ccccc4oc3=O)cc2)c(OC(C)=O)c1

IC50 [1]: 0.49 µM
Structure (SMILES): O=C(Oc1ccc(C(c2c(O)c3ccccc3oc2=O)c2c(O)c3ccccc3oc2=O)cc1)c1ccc(C(c2c(O)c3ccccc3oc2=O)c2c(O)c3ccccc3oc2=O)cc1

IC50 [1]: 9.3 µM
Structure (SMILES): CC(=O)Oc1cc(OC(C)=O)cc(C(=O)Oc2ccc(C(c3c(O)c4ccccc4oc3=O)c3c(O)c4ccccc4oc3=O)cc2)c1

IC50 [4]: 25.01 µM | IC50 [5]: 9.33 µM
Structure (SMILES): O=c1ccc2ccc(O)c(O)c2o1 [DAPHNETIN]

IC50 [6]: 100 µM
Structure (SMILES): O=c1cc(O)c2ccc(O)c(O)c2o1

IC50 [3]: 94.8 µM
Structure (SMILES): O=c1ccc2ccc(Cc3c(O)c4cc(O)c(O)cc4oc3=O)cc2o1

IC50 [1]: 1.9 µM
Structure (SMILES): CC(=O)Oc1ccc(C(=O)Oc2ccc(C(c3c(O)c4ccccc4oc3=O)c3c(O)c4ccccc4oc3=O)cc2)cc1OC(C)=O

IC50 [1]: 0.58 µM
Structure (SMILES): Cc1ccc(C(=O)Oc2cc(OC(=O)c3ccc(C)cc3)cc(C(c3c(O)c4ccccc4oc3=O)c3c(O)c4ccccc4oc3=O)c2)cc1

IC50 [1]: 0.96 µM
Structure (SMILES): O=C(OCCN(CCOC(=O)c1ccc(Br)cc1)c1ccc(C(c2c(O)c3ccccc3oc2=O)c2c(O)c3ccccc3oc2=O)cc1)c1ccc(Br)cc1

IC50 [8]: 8 µM
Structure (SMILES): O=c1oc2ccccc2c(O)c1C(c1ccc(C(c2c(O)c3ccccc3oc2=O)c2c(O)c3ccccc3oc2=O)cc1)c1c(O)c2ccccc2oc1=O

IC50 [3]: 22.5 µM
Structure (SMILES): O=c1ccc2ccc(Cc3cc4ccc(O)cc4oc3=O)cc2o1

IC50 [1]: 9.7 µM
Structure (SMILES): CC(=O)Oc1ccc(OC(C)=O)c(C(=O)Oc2ccc(C(c3c(O)c4ccccc4oc3=O)c3c(O)c4ccccc4oc3=O)cc2)c1

IC50 [6]: 151 µM
Structure (SMILES): O=c1oc2c(O)c(O)ccc2c(O)c1Cc1c(O)c2ccc(O)c(O)c2oc1=O

IC50 [1]: 1.8 µM
Structure (SMILES): Cc1ccc(C(=O)OCCN(CCOC(=O)c2ccc(C)cc2)c2ccc(C(c3c(O)c4ccccc4oc3=O)c3c(O)c4ccccc4oc3=O)cc2)cc1

IC50 [9]: 90 µg/mL (≈ 255 µM) | IC50 [10]: 86 µg/mL (≈ 244 µM)
Structure (SMILES): COc1cc2cc(Oc3ccc4ccc(=O)oc4c3)c(=O)oc2cc1O [DAPHNORETIN]

IC50 [10]: 760 µg/mL (≈ 1570 µM)
Structure (SMILES): O=c1ccc2ccc(O)c(-c3c(O[C@@H]4OC(CO)[C@@H](O)C(O)C4O)ccc4ccc(=O)oc34)c2o1 (some centres not stated)

IC50 [2]: 15 µM
Structure (SMILES): O=c1oc2ccccc2c(O)c1Cc1c(O)c2ccccc2oc1=O [DICUMAROL]

IC50 [11]: 0.107 µM
Structure (SMILES): CC(C)CC(NC(=O)c1cc2ccc(O)c(O)c2oc1=O)C(=O)Nc1cc2ccc(O)c(O)c2oc1=O (configuration not stated)

IC50 [10]: 49.6 µg/mL (≈ 147 µM)
Structure (SMILES): O=c1ccc2ccc(Oc3cc4cc(O)c(O)cc4oc3=O)cc2o1 [EDGEWORTHIN]

IC50 [1]: 2.6 µM
Structure (SMILES): CC(=O)Oc1ccc(/C=C/C(=O)Oc2ccc(C(c3c(O)c4ccccc4oc3=O)c3c(O)c4ccccc4oc3=O)cc2)cc1OC(C)=O

IC50 [11]: 0.03 µM
Structure (SMILES): CCCCCCC(NC(=O)c1cc2ccc(O)c(O)c2oc1=O)C(=O)Nc1cc2ccc(O)c(O)c2oc1=O (configuration not stated)

IC50 [1]: 2.6 µM
Structure (SMILES): COc1ccc(/C=C/C(=O)Oc2ccc(C(c3c(O)c4ccccc4oc3=O)c3c(O)c4ccccc4oc3=O)cc2)cc1OC

IC50 [10]: 231 µg/mL (≈ 326 µM)
Structure (SMILES): COc1cc2c(O)c(Oc3cc(O[C@@H]4O[C@H](CO)[C@@H](O)[C@H](O)[C@H]4O[C@@H]4O[C@H](CO)[C@@H](O)[C@H](O)[C@H]4O)c4ccc(=O)oc4c3)c(=O)oc2cc1O

IC50 [3]: 122 µM
Structure (SMILES): COc1cc2c(O)c(Cc3ccc4ccc(=O)oc4c3)c(=O)oc2cc1O

Source: ChEMBL document CHEMBL5260826, “Enzyme inhibitory activities an insight into the structure-Activity relationship of biscoumarin derivatives” (Eur J Med Chem, 2017)
